# Results: patent US20110046104A1, “AMINOPYRIMIDINES USEFUL AS KINASE INHIBITORS” (VERTEX PHARMACEUTICALS INCORPORATED, priority 2007, published 2011)
# Target: T1, Aurora-2 (Aurora A) (Homo sapiens, UniProt O14965)
# T1 sequence (O14965 1-403): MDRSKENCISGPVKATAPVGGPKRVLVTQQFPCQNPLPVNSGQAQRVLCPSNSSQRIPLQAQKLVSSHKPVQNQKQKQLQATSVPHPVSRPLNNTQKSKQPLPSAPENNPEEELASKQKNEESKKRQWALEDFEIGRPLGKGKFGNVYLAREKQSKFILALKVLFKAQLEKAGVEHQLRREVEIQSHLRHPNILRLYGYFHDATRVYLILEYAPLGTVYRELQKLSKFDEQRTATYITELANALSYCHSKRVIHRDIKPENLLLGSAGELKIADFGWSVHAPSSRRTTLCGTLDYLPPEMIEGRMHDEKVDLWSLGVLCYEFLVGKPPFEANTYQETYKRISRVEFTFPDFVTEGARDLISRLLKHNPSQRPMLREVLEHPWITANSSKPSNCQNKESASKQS
# Assay: Aurora-2 (Aurora A) inhibition assay, coupled enzyme assay
# Assay type: biochemical
# Settings: 400 μM ATP, 570 μM Kemptide, 40 nM Aurora-2, 30° C.
# Protocol: Compounds were screened for their ability to inhibit Aurora-2 using a standard coupled enzyme assay (Fox et al., Protein Sci., (1998) 7, 2249). Assays were carried out in a mixture of 100 mM Hepes (pH7.5), 10 mM MgCl2, 1 mM DTT, 25 mM NaCl, 2.5 mM phosphoenolpyruvate, 300 μM NADH, 30 μg/ml pyruvate kinase and 10 μg/ml lactate dehydrogenase. Final substrate concentrations in the assay were 400 μM ATP (Sigma Chemicals) and 570 μM peptide (Kemptide, American Peptide, Sunnyvale, Calif.). Assays were carried out at 30° C. and in the presence of 40 nM Aurora-2.
# An assay stock buffer solution was prepared containing all of the reagents listed above, with the exception of Aurora-2 and the test compound of interest. 55 μl of the stock solution was placed in a 96 well plate followed by addition of 2 μl of DMSO stock containing serial dilutions of the test compound (typically starting from a final concentration of 7.5 μM). The plate was preincubated for 10 minutes at 30° C. and the reaction initiated by addition of 10 μl of Aurora-2. Initial reaction rates were determined with a Molecular Devices SpectraMax Plus plate reader over a 10 minute time course. IC50 and Ki data were calculated from non-linear regression analysis using the Prism software package (GraphPad Prism version 3.0cx for Macintosh, GraphPad Software, San Diego Calif., USA).
row,Ki [µM],SMILES
1,0.033,"O=C(CC(F)(F)F)Nc1ccc(Sc2nc(Nc3ncns3)cc(N3CC(F)(C4CC4)C3)n2)cc1 [Compound I-1, N-(4-(4-(1,2,4-thiadiazol-5-ylamino)-6-(3-cyclopropyl-3-fluoroazetidin-1-yl)pyrimidin-2-ylthio)phenyl)-3,3,3-trifluoropropanamide]"

# Target: Aurora-1 (Aurora B) (Homo sapiens, UniProt Q96GD4)
# Sequence (Q96GD4 whole entry): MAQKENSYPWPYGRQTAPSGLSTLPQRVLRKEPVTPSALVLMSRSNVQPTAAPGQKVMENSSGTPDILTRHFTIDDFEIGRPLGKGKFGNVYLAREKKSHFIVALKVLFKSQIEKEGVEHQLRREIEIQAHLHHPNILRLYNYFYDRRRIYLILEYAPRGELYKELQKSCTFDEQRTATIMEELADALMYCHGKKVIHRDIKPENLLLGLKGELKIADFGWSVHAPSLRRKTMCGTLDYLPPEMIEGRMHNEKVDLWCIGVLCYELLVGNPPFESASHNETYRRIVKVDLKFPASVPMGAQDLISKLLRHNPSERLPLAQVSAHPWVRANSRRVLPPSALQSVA
# Assay: Aurora-1 (Aurora B) inhibition assay (radiometric)
# Assay type: biochemical
# Settings: 800 μM [γ-33P]-ATP, Kemptide, 25° C., 3 hours
# Protocol: An assay buffer solution was prepared which consisted of 25 mM HEPES (pH 7.5), 10 mM MgCl2, 0.1% BSA and 10% glycerol. A 22 nM Aurora-B solution, also containing 1.7 mM DTT and 1.5 mM Kemptide (LRRASLG), was prepared in assay buffer. To 22 μL of the Aurora-B solution, in a 96-well plate, was added 2 μl of a compound stock solution in DMSO and the mixture allowed to equilibrate for 10 minutes at 25° C. The enzyme reaction was initiated by the addition of 16 μl stock [γ-^33P]-ATP solution (˜20 nCi/μL) prepared in assay buffer, to a final assay concentration of 800 μM. The reaction was stopped after 3 hours by the addition of 16 μL 500 mM phosphoric acid and the levels of ^33P incorporation into the peptide substrate were determined by the following method.
# A phosphocellulose 96-well plate (Millipore, Cat no. MAPHNOB50) was pre-treated with 100 μL of a 100 mM phosphoric acid prior to the addition of the enzyme reaction mixture (40 μL). The solution was left to soak on to the phosphocellulose membrane for 30 minutes and the plate subsequently washed four times with 200 μL of a 100 mM phosphoric acid. To each well of the dry plate was added 30 μL of Optiphase ‘SuperMix’ liquid scintillation cocktail (Perkin Elmer) prior to scintillation counting (1450 Microbeta Liquid Scintillation Counter, Wallac). Levels of non-enzyme catalyzed background radioactivity were determined by adding 16 μL of the 500 mM phosphoric acid to control wells, containing all assay components (which acts to denature the enzyme), prior to the addition of the [γ-^33P]-ATP solution. Levels of enzyme catalyzed ^33P incorporation were calculated by subtracting mean background counts from those measured at each inhibitor concentration. For each Ki determination 8 data points, typically covering the concentration range 0-10 μM compound, were obtained in duplicate (DMSO stocks were prepared from an initial compound stock of 10 mM with subsequent 1:2.5 serial dilutions). Ki values were calculated from initial rate data by non-linear regression using the Prism software package (Prism 3.0, Graphpad Software, San Diego, Calif.).
row,SMILES,Ki [µM]
1,"O=C(CC(F)(F)F)Nc1ccc(Sc2nc(Nc3ncns3)cc(N3CC(F)(C4CC4)C3)n2)cc1 [Compound I-1, N-(4-(4-(1,2,4-thiadiazol-5-ylamino)-6-(3-cyclopropyl-3-fluoroazetidin-1-yl)pyrimidin-2-ylthio)phenyl)-3,3,3-trifluoropropanamide]",> 1.5
2,"O=C(CC(F)(F)F)Nc1ccc(Sc2nc(Nc3nnc[nH]3)cc(N3CC(F)(C4CC4)C3)n2)cc1 [Compound I-2, N-(4-(4-(4H-1,2,4-Triazol-3-ylamino)-6-(3-cyclopropyl-3-fluoroazetidin-1-yl)pyrimidin-2-ylthio)phenyl)-3,3,3-trifluoropropanamide]",> 1.5
3,"O=C(CC(F)(F)F)Nc1ccc(Sc2nc(Nc3nnc[nH]3)cc(N3CC[C@H](F)C3)n2)cc1 [Compound I-10, (S)—N-(4-(4-(4H-1,2,4-Triazol-3-ylamino)-6-(3-fluoropyrrolidin-1-yl)pyrimidin-2-ylthio)phenyl)-3,3,3-trifluoropropanamide]",< 0.5
4,"O=C(CC(F)(F)F)Nc1ccc(Sc2nc(Nc3ncns3)cc(N3CC[C@H](F)C3)n2)cc1 [Compound I-11, (S)—N-(4-(4-(1,2,4-Thiadiazol-5-ylamino)-6-(3-fluoropyrrolidin-1-yl)pyrimidin-2-ylthio)phenyl)-3,3,3-trifluoropropanamide]",> 1.5

# Other lines, results leading:
row,Ki [µM],SMILES
1,< 0.5,"O=C(CC(F)(F)F)Nc1ccc(Sc2nc(Nc3ccccn3)cc(N3CC(F)(C4CC4)C3)n2)cc1 [Compound I-3, N-(4-(4-(3-Cyclopropyl-3-fluoroazetidin-1-yl)-6-(pyridin-2-ylamino)pyrimidin-2-ylthio)phenyl)-3,3,3-trifluoropropanamide]"
2,> 1.5,"O=C(Nc1ccc(Sc2nc(Nc3ncns3)cc(N3CC(F)(C4CC4)C3)n2)cc1)C1CC1 [Compound I-4, N-(4-(4-(1,2,4-Thiadiazol-5-ylamino)-6-(3-cyclopropyl-3-fluoroazetidin-1-yl)pyrimidin-2-ylthio)phenyl)cyclopropanecarboxamide]"
3,< 0.5,"O=C(Nc1ccc(Sc2nc(Nc3ncns3)cc(N3CCC3)n2)cc1)c1ccccc1Cl [Compound I-7, N-(4-(4-(1,2,4-Thiadiazol-5-ylamino)-6-(azetidin-1-yl)pyrimidin-2-ylthio)phenyl)-2-chlorobenzamide]"
4,> 1.5,"O=C(NCC(F)(F)F)c1ccc(Sc2nc(Nc3ncns3)cc(N3CC(F)(C4CC4)C3)n2)cc1 [Compound I-8, 4-(4-(1,2,4-Thiadiazol-5-ylamino)-6-(3-cyclopropyl-3-fluoroazetidin-1-yl)pyrimidin-2-ylthio)-N-(2,2,2-trifluoroethyl)benzamide]"
5,> 1.5,"O=C(CC(F)(F)F)Nc1ccc(Sc2nc(Nc3ccccn3)cc(N3CC[C@H](F)C3)n2)cc1 [Compound I-9, (S)-3,3,3-Trifluoro-N-(4-(4-(3-fluoropyrrolidin-1-yl)-6-(pyridin-2-ylamino)pyrimidin-2-ylthio)phenyl)propanamide]"
